Assay results published in US7118895B2, “Process for producing aglycon by using diglycosidase and flavor-improved food containing the aglycon and converting agent to be used in the process” (Amano Enzyme Inc., priority 2000, dated 2006).

Assay: Effective amount of Amylase AD “Amano” 1 accelerating the conversion into aglycon isoflavones by diglycosidase
Type: biochemical
Conditions: Amylase AD “Amano” 1 at 0.005% (w/v) with diglycosidase 0.1% (w/v); roasted soy flour 30% (w/v), pH 5.0, 50° C., 3 hours
Description: Roasted soy flour (manufactured by Fuji Shokuhin K.K.) was suspended into 0.1 M sodium acetate adjusted to pH 3.15, the substrate concentration was adjusted to 30% (w/v), and the pH of the solution to 5.0. The suspension was pre-incubated at 50° C. for 1 hour, whereby the temperature of the suspension was elevated to 50° C. To the suspension were added diglycosidase so as to be a final concentration of 0.1% (w/v) (0.3 AU) and Amylase AD “Amano” 1 (manufactured by Amano Enzyme Innc.) so as to be 0.1, 0.05, 0.01, 0.005, and 0.0001% (w/v). The whole was reacted at 50° C. for 3 hours and the change of isoflavone composition was analyzed by HPLC.

| SMILES | increase of isolated aglycon versus diglycosidase alone [fold] |
| --- | --- |
| COc1cc2c(=O)c(-c3ccc(O)cc3)coc2cc1O [glycitein] | 1.23 |
| O=c1c(-c2ccc(O)cc2)coc2cc(O)cc(O)c12 [genistein] | 1.20 |
| O=c1c(-c2ccc(O)cc2)coc2cc(O)ccc12 [daidzein] | 1.2 |
